Measured values: the NIST ThermoML archive (doi:10.1021/acs.jced.8b00181)

Legend:
[1] = refractive index (Na D-line) (dimensionless); conditions: 298 K; 101.33 kPa; Liquid; Standard Abbe refractometry
[2] = mn = molality of the nth substance listed, in mol/kg; conditions: 298 K, 100 kPa, Liquid, Frequency=0.001 MHz, Alternating current cell with electrodes
[3] = refractive index (Na D-line) (dimensionless); mn = molality of the nth substance listed, in mol/kg; conditions: 298 K, 100 kPa, Liquid, Standard Abbe refractometry
[4] = 298 K; 100 kPa; Liquid; Frequency=0.001 MHz; Alternating current cell with electrodes

CCO [ethanol]
Conditions	refractive index
[1]	1.36

CCO [ethanol] + O
Conditions	electrical conductivity, [2] [S/m]	refractive index, [3]
m1 = 0.9	0.000248	1.3362
m1 = 1.46	0.000259	1.3375
m1 = 2.69	0.000287	1.34
m1 = 4.09	0.000311	1.3431
m1 = 7.59	0.000251	1.3497
m1 = 9.51	0.000252	1.3521

CCCO [propan-1-ol]
Conditions	refractive index
[1]	1.3834

CCCO [propan-1-ol] + O
Conditions	electrical conductivity, m1 = 0.87 [S/m]	electrical conductivity, m1 = 1.49 [S/m]	electrical conductivity, m1 = 2.76 [S/m]	electrical conductivity, m1 = 4.29 [S/m]	electrical conductivity, m1 = 6.77 [S/m]	refractive index, m1 = 0.87	refractive index, m1 = 1.49	refractive index, m1 = 2.76	refractive index, m1 = 4.29	refractive index, m1 = 6.77
[2]	0.000153	0.000145	0.000111	0.000117	0.000143	–	–	–	–	–
[3]	–	–	–	–	–	1.3381	1.3414	1.3465	1.3516	1.3572

CC(C)O [propan-2-ol]
Conditions	refractive index
[1]	1.3758

CC(C)O [propan-2-ol] + O
Conditions	electrical conductivity, [2] [S/m]	refractive index, [3]
m1 = 0.85	0.000134	1.3374
m1 = 1.45	0.000141	1.3408
m1 = 2.84	8.2e-05	1.3467
m1 = 4.36	9.4e-05	1.3511
m1 = 8.72	5e-05	1.361
m1 = 13.08	4.7e-05	1.365

CCCCCCCCCCCCOS(=O)(=O)[O-].[Na+] [sodium dodecyl sulfate] + O
[2]
Conditions	electrical conductivity [S/m]
m1 = 0.00099	0.00957
m1 = 0.00198	0.0183
m1 = 0.00297	0.0271
m1 = 0.00396	0.0357
m1 = 0.00495	0.0443
m1 = 0.00594	0.0528
m1 = 0.00693	0.061
m1 = 0.00792	0.0684
m1 = 0.00891	0.074
m1 = 0.0099	0.0777
m1 = 0.01089	0.0813
m1 = 0.01188	0.0846
m1 = 0.01287	0.0878
m1 = 0.01386	0.09108

O [water]
Conditions	electrical conductivity [S/m]	refractive index
[1]	–	1.3327
[4]	0.000502	–
